From patent US8278032B2, “Transporter protein in mammal and utilization of the same” (priority 2005, dated 2012) come the findings set out here.

The structures appear in SMILES notation.

One data set concerns the target T1, mMATE1 (Mus musculus, UniProt Q8K0H1).
T1 construct: expressed in transfected cells; host or cells: HEK293
T1 sequence (Q8K0H1 with tags, fused parts or gaps): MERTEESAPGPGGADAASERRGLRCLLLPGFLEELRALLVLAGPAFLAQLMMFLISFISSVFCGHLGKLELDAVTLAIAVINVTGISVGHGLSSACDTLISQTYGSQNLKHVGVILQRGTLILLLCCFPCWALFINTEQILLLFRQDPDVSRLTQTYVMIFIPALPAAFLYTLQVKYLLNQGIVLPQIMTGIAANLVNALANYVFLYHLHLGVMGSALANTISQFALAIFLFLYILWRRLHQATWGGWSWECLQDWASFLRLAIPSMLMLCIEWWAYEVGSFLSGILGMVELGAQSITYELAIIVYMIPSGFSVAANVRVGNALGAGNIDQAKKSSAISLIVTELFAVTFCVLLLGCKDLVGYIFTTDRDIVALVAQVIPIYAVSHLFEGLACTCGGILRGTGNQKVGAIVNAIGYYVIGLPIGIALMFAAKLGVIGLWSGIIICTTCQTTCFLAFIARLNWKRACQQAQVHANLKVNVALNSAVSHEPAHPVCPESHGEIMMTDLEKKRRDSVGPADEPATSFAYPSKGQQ
The data set can be described thus: Inhibition of RI-labeled TEA uptake in HEK293 cells expressing mMATE1.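 Note: transfected HEK293 cells held 5 min at 37 °C before tracer addition, uptake read as radioactivity retained on a 0.45-µm membrane filter, mean ± SD of three to nine experiments.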 It counts as cell-based. The conditions noted are these: compound 5 mM; 50 μM RI-labeled TEA, pH 8.0, HEK293 cells expressing mMATE1.

Data set [1] deals with T2, hMATE1 (Homo sapiens, UniProt Q96FL8).
T2 sequence (Q96FL8 1-570): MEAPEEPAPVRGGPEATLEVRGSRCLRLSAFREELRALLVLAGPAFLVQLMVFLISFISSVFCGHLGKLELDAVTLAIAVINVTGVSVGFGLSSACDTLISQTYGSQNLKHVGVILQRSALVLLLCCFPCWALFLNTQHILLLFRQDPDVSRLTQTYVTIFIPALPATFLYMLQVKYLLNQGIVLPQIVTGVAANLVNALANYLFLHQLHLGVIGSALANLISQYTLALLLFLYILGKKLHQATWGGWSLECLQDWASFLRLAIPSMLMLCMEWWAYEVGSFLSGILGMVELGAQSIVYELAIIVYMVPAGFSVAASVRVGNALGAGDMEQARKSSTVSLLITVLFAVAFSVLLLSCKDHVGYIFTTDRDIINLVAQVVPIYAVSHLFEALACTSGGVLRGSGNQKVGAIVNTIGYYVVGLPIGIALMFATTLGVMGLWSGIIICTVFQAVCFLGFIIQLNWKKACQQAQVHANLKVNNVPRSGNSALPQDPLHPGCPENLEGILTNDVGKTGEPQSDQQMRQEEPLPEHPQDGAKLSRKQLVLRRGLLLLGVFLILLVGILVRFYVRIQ
Particulars: read-out: Km value of transport; substrate transport, cells expressing wild type MATE1 (TEA: FIG. 9(c)); MPP: MATE1, species not stated.

Data set [2] deals with T2, hMATE1. The conditions noted are these: 1 mM 14C-TEA, pH of extracellular fluid varied, FIG. 12.
The target of data set [3] is T2, hMATE1. The data set can be described thus: Inhibition of RI-labeled TEA uptake in HEK293 cells expressing hMATE1. Particulars: pH 8.

Broadly, the Km is the concentration of substrate that gives half-maximal velocity. `CC[N+](CC)(CC)CC` [TEA, tetraethylammonium]: the “TEA uptake activity percent taking the level with addition of no compound as 100% (% ± S.D.)” value on mMATE1 stood at 0.0 ± 7. %; at hMATE1 [3], 0.7 ± 1.8%. In addition, the Km on hMATE1 [1] stood at 220 µM. Besides, on hMATE1 [2], the “Uptake of TEA into liposome containing MATE polypeptide (in words)” value is reported as “pH-dependent uptake of TEA was observed”.
